Experimental data from PMC3017812 (Chembiochem : a European journal of chemical biology, 2010).

Target: His-tagged MDM2 (Homo sapiens, UniProt Q00987)
Experiment: competitive fluorescence polarization binding assay

Compound | fold lower affinity for MDM2 relative to peptide 1 (fluorescence polarization assay, compared with unconstrained peptide 1) | Kd (read-out: KD, binding affinity for MDM2, competitive fluorescence polarization assay, His-tagged MDM2) [µM]
CC(C)C[C@H](NC(=O)[C@H](CC(=O)O)NC(=O)[C@H](CO)NC(=O)[C@H](Cc1ccccc1)N1C/C=C/CCC(=O)N[C@@H](CCC(=O)O)C(=O)N[C@@H](C)C1=O)C(=O)N[C@@H](Cc1c[nH]c2ccccc12)C(=O)N[C@@H](CCCCN)C(=O)N[C@@H](CC(C)C)C(=O)N[C@@H](CC(C)C)C(=O)N1CCC[C@H]1C(=O)N[C@@H](CCC(=O)O)C(=O)N[C@@H](CC(N)=O)C(=O)N[C@@H](CC(N)=O)C(=O)N[C@H](C(N)=O)C(C)C [HBS 2] | seven-fold lower affinity | –
HBS 3: negative control of 2, Phe-19 and Leu-26 mutated to alanine (EAASDLWKLAPENNV) | – | > 125
